Each structure is given as a SMILES string. Active and inactive are the calls of the source. No cut-off for these calls is given here.

We go through three compounds from ChEMBL document CHEMBL1154493, “Oxidative inactivation of protein tyrosine phosphatase 1B by organic hydroperoxides” (Bioorg Med Chem Lett, 2008).

In experiment [1] the target is T1, Tyrosine-protein phosphatase non-receptor type 1 (Homo sapiens) (UniProt P18031).
T1 sequence (whole entry): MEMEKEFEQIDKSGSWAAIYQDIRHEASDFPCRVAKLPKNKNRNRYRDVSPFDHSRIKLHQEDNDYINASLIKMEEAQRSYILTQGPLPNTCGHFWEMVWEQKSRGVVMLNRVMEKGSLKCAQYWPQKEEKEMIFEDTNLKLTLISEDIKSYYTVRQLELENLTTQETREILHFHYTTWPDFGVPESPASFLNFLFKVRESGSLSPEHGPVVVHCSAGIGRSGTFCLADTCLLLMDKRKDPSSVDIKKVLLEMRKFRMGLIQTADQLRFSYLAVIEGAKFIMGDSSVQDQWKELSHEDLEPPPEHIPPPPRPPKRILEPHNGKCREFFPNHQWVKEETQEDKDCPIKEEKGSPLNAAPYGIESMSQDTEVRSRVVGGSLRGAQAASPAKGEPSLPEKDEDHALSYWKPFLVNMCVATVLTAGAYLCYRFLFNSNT
In words: Inactivation of PTP1B assessed as return of enzyme activity at 800 nM for 10 mins in presence of dithiothreitol.

The target of experiment [2] is T1, Tyrosine-protein phosphatase non-receptor type 1 (Homo sapiens). In words: Inactivation of PTP1B at 15 uM after 15 sec.
For experiment [3] the target is unchanged. In words: Inactivation of PTP1B at 15 uM after 15 sec in presence of phosphate ion.
Experiment [4] concerns the target T2, Tyrosine-protein phosphatase non-receptor type 1 (Homo sapiens, UniProt P18031).
T2 sequence (P18031 whole entry): T1 sequence (whole entry)
In words: Inhibition of PTP1B.

Experiment [5] deals with T1, Tyrosine-protein phosphatase non-receptor type 1 (Homo sapiens). As to the kind of experiment: Inactivation of PTP1B assessed as return of enzyme activity at 5 uM after 10 mins in presence of dithiothreitol.
Experiment [6] shares this target. In words: Inactivation of PTP1B at 15 uM after 15 sec in presence of glutathione.
Experiment [7] has the same target. In words: Inactivation of PTP1B at 150 nM.

The term Ki denotes a dissociation constant, usually derived from enzyme kinetics or from competition with a known ligand. As to `CC(=O)OO` [ETHANEPEROXOIC ACID], the Activity was determined as 73% in experiment [1]; 88% in experiment [2]; 49% in experiment [3]; 10% in experiment [5]; 29% in experiment [6]. Further, in experiment [4], the affinity corresponds to a Ki of 17 mM.
As for `O=C(OO)c1cccc(Cl)c1`, the result in experiment [7] was Active.
Same read-out and setting: the result for `O=C(O)c1ccccc1C(=O)OO` reads “Active”.
